Experimental data taken from publication PMC9145865, “Effects of Rare Phytocannabinoids on the Endocannabinoid System of Human Keratinocytes” (International Journal of Molecular Sciences, 2022).
“Also recorded” adds a separate entry of the source.

Experiments:
CB1/2 = experiment: Receptor binding assay on adherent living cells with [3H]CP 55,940; design: species or system human; settings: HaCaT cells treated 24 h with half-IC50 amount; for total CB1/2 binding activity (in words): vs. control; for CB1/2 Binding Activity (pmol/mg of Protein): 2.5 nM [3H]CP 55,940, mean ± SEM, n = 3
Method: We also sought to investigate the effects of half-IC50 doses of pCBs on the functional activity of eCB-binding receptors (CB1/2 and TRPV1) and the AEA and 2-AG metabolizing enzymes (NAPE-PLD, FAAH, DAGLα/β and MAGL) when used to treat HaCaT cells for 24 h, for which an assay procedure was available. To this end, a CB1/2 ligand binding assay was performed using the radiolabeled synthetic cannabinoid [^3H]CP 55,940, which acts as a full agonist of both cannabinoid receptors with high and roughly equal affinity.
The HaCaT cells were seeded into 12-well plates at a density of 2 × 10^4 per well, incubated overnight and then treated with the selected pCBs (6.0 µM of CBG, 4.0 µM of CBC, 9.0 µM of THCV and 13.0 µM CBGA) for 24 h. Each well of the 12-well plates was washed twice with 1 mL of PBS and treated with 500 µL of incubation buffer (50 mM of Tris–HCl, 5 mM of MgCl2 and 1 mM of CaCl2; 0.2% BSA; pH 7.4), preheated to 37 °C and then incubated for 15 min at 37 °C. Then, 2.5 nM of [^3H]CP 55,940 was added and incubation occurred for 1 h in an incubator that was set at 37 °C. Afterward, the buffer was carefully removed and the cells were washed again with an ice-cold washing buffer (50 mM of Tris–HCl and 500 mM of NaCl; 0.1% BSA; pH 7.4). Unspecific binding was determined in the presence of 1 µM of synthetic agonist CP 55,940 [60]. Then, 500 µL of 0.5 M NaOH was added to each well and the cells were pipetted up and down several times in order to be lysed. The resuspension was then transferred to a 10-mL scintillation vial with a liquid scintillation cocktail and radioactivity was immediately read using a scintillation β-counter (Tri-Carb 2810 TR, Perkin Elmer, Waltham, MA, USA), as described in [40].

DAGLα/β = experiment: DAGL α/β activity assay in membranes of treated cells; type: cell-based, human; settings: HaCaT cells, half-IC50 amount, 24 h, vs. control
Method: DAGL α/β Assay: The HaCaT cells were seeded into 6-well plates at a density of 4 × 10^4 per well, incubated overnight and then treated with the selected pCBs (6.0 µM of CBG, 4.0 µM of CBC, 9.0 µM of THCV and 13.0 µM of CBGA) for 24 h. The cell pellets were collected and DAGL α/β activity was determined using membranes that were isolated from these cells using the synthetic substrate p-nitrophenyl butyrate (pNPB) (8 mM) in 50 mM of HEPES pH 7.3 at room temperature for 20 min [68]. The DAGLα/β inhibitor KT172 (1 μM), which was purchased from Sigma-Aldrich (St. Louis, MO, USA), was used to fully erase the enzyme activity as a control.

PPARα = experiment: Western blot protein expression of PPARα; type: cell-based, human; settings: HaCaT cells, half-IC50 dose, 24 h, vs. control
Method: The HaCaT cells were seeded into 6-well plates at a density of 4 × 10^4 per well, incubated overnight and then treated with the selected pCBs (6.0 µM of CBG, 4.0 µM of CBC, 9.0 µM of THCV and 13.0 µM of CBGA) for 24 h. The cell pellets were collected and then lysed in an ice-cold lysis buffer (10 mM of EDTA, 50 mM of pH 7.4 Tris–HCl, 150 mM of sodium chloride, 1% Triton-X-100, 2 mM of phenylmethylsulfonyl fluoride, 2 mM of sodium orthovanadate, […] of leupeptin and […] of aprotinin). The amount of protein was determined using the Bio-Rad Protein assay (Bio-Rad Laboratories, Hemel Hempstead, UK). An equal amount of protein (60 µg) was loaded onto 10% sodium dodecyl sulfate–polyacrylamide gels and blotted onto polyvinylidene fluoride sheets (Amersham Biosciences, Piscataway, NJ, USA). The membranes were blocked with dried 5% non-fat milk for 1 h and then incubated with suitable primary antibodies. Detection was performed using Azure Biosystems c400 (Dublin, CA, USA). The membranes were stripped using the Restore Western Blot Stripping Buffer from Thermo Fisher Scientific (Waltham, MA, USA) for 30 min under agitation at room temperature, according to the manufacturer’s instructions. The primary antibodies (Table 6) that were used were obtained from the following sources: […]

human TRPV1 = test system: human TRPV1; design: method as in PMID 21175579; settings: over-expressed by HEK-293 cells; ref [41]; cited from earlier work
FAAH = FAAH activity assay in membranes of treated cells; type: cell-based, human; settings: HaCaT cells, half-IC50 amount, 24 h, vs. control
Method: FAAH Assay: The HaCaT cells were seeded into 6-well plates at a density of 4 × 10^4 per well, incubated overnight and then treated with the selected pCBs (6.0 µM of CBG, 4.0 µM of CBC, 9.0 µM of THCV and 13.0 µM of CBGA) for 24 h. The cell pellets were collected and FAAH activity was determined using membranes that were isolated from these cells. Briefly, the membranes were incubated at pH 7.4 with 10 μM of [^3H]AEA and 50 mM of Tris–HCl, 0.05% BSA at 37 °C in water bath for 30 min. The reaction was blocked with 1 mL of chloroform–methanol (1:1 v/v) and centrifuged at 3000 rpm for 10 min at 4 °C. The aqueous (top) layer was collected and transferred into scintillation vials. The amount of [^3H]ethanolamine that was released was expressed as pmol per min per mg of protein, as reported in [67].

| SMILES | total CB1/2 binding activity (in words) (CB1/2) | CB1/2 Binding Activity (pmol/mg of Protein) (CB1/2) | DAGLα/β activity (DAGLα/β) | PPARα protein expression (in words) (PPARα) | Protein Expression PPARα (PPARα) | effectiveness in human TRPV1 (human TRPV1) | activity of FAAH (FAAH) |
| --- | --- | --- | --- | --- | --- | --- | --- |
| CCCCCc1cc(O)c2c(c1)OC(C)(CCC=C(C)C)C=C2 (stereo not drawn) [CBC, cannabichromene] | significantly increased | 10.380 ± 0.750 pmol/mg of Protein | increased DAGLα/β activity remarkably | significantly reduced | ↓++ | to a lesser extent | significantly increased |
| CCCc1cc(O)c2c(c1)OC(C)(C)[C@@H]1CCC(C)=C[C@@H]21 [THCV, Δ^9-tetrahydrocannabivarin] | significantly increased | 8.187 ± 0.302 pmol/mg of Protein | increased DAGLα/β activity remarkably | significantly reduced | ↓++ | high effectiveness | significantly increased |
| CCCCCc1cc(O)c(C/C=C(\C)CCC=C(C)C)c(O)c1 [CBG, cannabigerol] | significantly increased; also recorded: doubled | 8.027 ± 0.681 pmol/mg of Protein | increased DAGLα/β activity remarkably | – | – | high effectiveness | significantly increased |
| CCCCCc1cc(O)c(C/C=C(\C)CCC=C(C)C)c(O)c1C(=O)O [CBGA, cannabigerolic acid] | significantly increased | 8.373 ± 0.410 pmol/mg of Protein | – | significantly reduced | ↓++++ | – | significantly increased |
